Test results published in patent US20030211942A1, “Aryl sulfonyl amino carbonyl triazole based selective herbicides” (priority 2000, published 2003).
Several values for one entry are separate records, joined by “and”; a condition that tells them apart may be missing. Equal values may be shown once.

Tests used:
Experiment in all cases: Post-emergence/greenhouse herbicidal test
Type in all cases: in vivo
Lolium perenne = conditions: post-emergence, about 3 weeks
Description: (§1) Procarbazone- and flucarbazone-sodium were used as 70 WG formulation. Fenoxaprop-P-ethyl was used in a mixture with mefenpyr-diethyl (75 g of mefenpyr-diethyl/l) as Ralon® Super 69 EW. Cinidon-ethyl and florasulam and iodosufuron in a mixture with mefenpyr-diethyl were used in the form of the finished formulations Lotus® 200 EC, Primus® 50 SC and Hussar® 5 WG (15% mefenpyr-diethyl), respectively. Amicarbazone was used as 70 WG formulation.
(§2) In pre- and post-emergence experiments, the spray liquor is usually admixed with a surfactant (Renex 36), at a concentration of 0.1%.
(§3) Test plants are grown under controlled conditions (temperature and light).
(§4) Following the spray application, the plant containers are kept in a greenhouse under constant light and temperature conditions.
(§5) After about 3 weeks, the degree of damage to the plants is rated in % damage in comparison to the development of the untreated control.
(§6) 0% =no damage (like untreated control)
(§7) 100% =total destruction/damage

Abutilon theophrasti = conditions: post-emergence, about 3 weeks
Description: as §1, §2, §3, §4, §5, §6, §7

Alopecurus myosuroides = conditions: post-emergence, about 3 weeks
Description: as §1, §2, §3, §4, §5, §6, §7

Viola arvensis = conditions: post-emergence, about 3 weeks
Description: as §1, §2, §3, §4, §5, §6, §7

Galium aparine = conditions: post-emergence, about 3 weeks
Description: as §1, §2, §3, §4, §5, §6, §7

Amaranthus retroflexus = conditions: post-emergence, about 3 weeks
Description: as §1, §2, §3, §4, §5, §6, §7

Xanthium strumarium = conditions: post-emergence, about 3 weeks
Description: as §1, §2, §3, §4, §5, §6, §7

Digitaria sanguinalis = conditions: post-emergence, about 3 weeks
Description: as §1, §2, §3, §4, §5, §6, §7

Polygonum convolvolus = conditions: post-emergence, about 3 weeks
Description: as §1, §2, §3, §4, §5, §6, §7

Cassia tora = test system: Cassia tora
Description: as §1, §2, §3, §4, §5, §6, §7

Veronica persicaria = conditions: post-emergence, about 3 weeks
Description: as §1, §2, §3, §4, §5, §6, §7

Bromus secalinus = conditions: post-emergence, about 3 weeks
Description: as §1, §2, §3, §4, §5, §6, §7

Matricaria inodora = test system: Matricaria inodora
Description: as §1, §2, §3, §4, §5, §6, §7

Echinochloa crus-galli = test system: Echinochloa crus-galli
Description: as §1, §2, §3, §4, §5, §6, §7

Avena fatua = test system: Avena fatua
Description: as §1, §2, §3, §4, §5, §6, §7

Chenopodium album = conditions: post-emergence, about 3 weeks
Description: as §1, §2, §3, §4, §5, §6, §7

Datura strumarium = conditions: post-emergence, about 3 weeks
Description: as §1, §2, §3, §4, §5, §6, §7

Eriochloa villosa = conditions: 60 g of ai/ha, post-emergence, about 3 weeks
Description: as §1, §2, §3, §4, §5, §6, §7

Stellaria media = conditions: post-emergence, about 3 weeks
Description: as §1, §2, §3, §4, §5, §6, §7

[1] = 8 g of ai/ha, post-emergence, about 3 weeks
[2] = 15 g of ai/ha, post-emergence, about 3 weeks
[3] = 2 g of ai/ha, post-emergence, about 3 weeks
[4] = 4 g of ai/ha, post-emergence, about 3 weeks
[5] = 30 g of ai/ha, post-emergence, about 3 weeks
[6] = 60 g of ai/ha, post-emergence, about 3 weeks

COc1ncc(F)c2nc(S(=O)(=O)Nc3c(F)cccc3F)nn12 [Florasulam, N-(2,6-difluoro-phenyl)-8-fluoro-5-methoxy-[1,2,4]-triazolo-[1,5-c]-pyrimidine-2-sulphonamide]
Lolium perenne observed (Lolium perenne; 2 g of ai/ha): 0% | Lolium perenne observed (Lolium perenne; 4 g of ai/ha): 0% | Lolium perenne observed (Lolium perenne; 8 g of ai/ha): 20% | Lolium perenne observed (Lolium perenne; 15 g of ai/ha): 30% | Abutilon theophrasti observed (Abutilon theophrasti; 2 g of ai/ha): 20% | Abutilon theophrasti observed (Abutilon theophrasti; 4 g of ai/ha): 30% | Alopecurus myosuroides observed (Alopecurus myosuroides; 2 g of ai/ha): 0% | Alopecurus myosuroides observed (Alopecurus myosuroides; 4 g of ai/ha): 0% | Viola arvensis observed (Viola arvensis; 2 g of ai/ha): 0% | Viola arvensis observed (Viola arvensis; 4 g of ai/ha): 0% | Viola arvensis observed (Viola arvensis; 8 g of ai/ha): 70% | Galium aparine observed (Galium aparine; 2 g of ai/ha): 50% | Galium aparine observed (Galium aparine; 4 g of ai/ha): 50% | Amaranthus retroflexus observed (Amaranthus retroflexus; 2 g of ai/ha): 70% | Amaranthus retroflexus observed (Amaranthus retroflexus; 4 g of ai/ha): 70% | Xanthium strumarium observed (Xanthium strumarium; 2 g of ai/ha): 40% | Xanthium strumarium observed (Xanthium strumarium; 4 g of ai/ha): 50% | Digitaria sanguinalis observed (Digitaria sanguinalis; 2 g of ai/ha): 0% | Digitaria sanguinalis observed (Digitaria sanguinalis; 4 g of ai/ha): 0% | Polygonum convolvolus observed (Polygonum convolvolus; 8 g of ai/ha): 95% | Polygonum convolvolus observed (Polygonum convolvolus; 15 g of ai/ha): 95% | Cassia tora observed (Cassia tora; [1]): 90% | Cassia tora observed (Cassia tora; [2]): 95% | Veronica persicaria observed (Veronica persicaria; 2 g of ai/ha): 0% | Veronica persicaria observed (Veronica persicaria; 4 g of ai/ha): 0% | Bromus secalinus observed (Bromus secalinus; 2 g of ai/ha): 0% | Bromus secalinus observed (Bromus secalinus; 4 g of ai/ha): 0% | Matricaria inodora observed (Matricaria inodora; [3]): 70% | Echinochloa crus-galli observed (Echinochloa crus-galli; [3]): 10% | Echinochloa crus-galli observed (Echinochloa crus-galli; [4]): 40% | Avena fatua observed (Avena fatua; [3]): 0% | Avena fatua observed (Avena fatua; [4]): 10% | Avena fatua observed (Avena fatua; [1]): 30% | Avena fatua observed (Avena fatua; [2]): 50%

COc1nn(C(=O)NS(=O)(=O)c2ccccc2OC(F)(F)F)c(=O)n1C [Flucarbazone-sodium, 2-(2-trifluoromethoxy-phenylsulphonylaminocarbonyl)-4-methyl-5-methoxy-2,4-dihydro-3H-1,2,4-triazol-3-one]
Lolium perenne observed (Lolium perenne; 15 g of ai/ha): 80% | Lolium perenne observed (Lolium perenne; 30 g of ai/ha): 90% | Lolium perenne observed (Lolium perenne; 60 g of ai/ha): 90% | Abutilon theophrasti observed (Abutilon theophrasti; 15 g of ai/ha): 0% | Abutilon theophrasti observed (Abutilon theophrasti; 30 g of ai/ha): 0% | Abutilon theophrasti observed (Abutilon theophrasti; 60 g of ai/ha): 0% | Chenopodium album observed (Chenopodium album; 15 g of ai/ha): 50% | Chenopodium album observed (Chenopodium album; 30 g of ai/ha): 50% | Chenopodium album observed (Chenopodium album; 60 g of ai/ha): 70% | Alopecurus myosuroides observed (Alopecurus myosuroides; 15 g of ai/ha): 70% | Alopecurus myosuroides observed (Alopecurus myosuroides; 30 g of ai/ha): 70% | Alopecurus myosuroides observed (Alopecurus myosuroides; 60 g of ai/ha): 70% | Viola arvensis observed (Viola arvensis; 15 g of ai/ha): 60% and 50% and 80% | Viola arvensis observed (Viola arvensis; 30 g of ai/ha): 50% | Viola arvensis observed (Viola arvensis; 60 g of ai/ha): 50% | Galium aparine observed (Galium aparine; 15 g of ai/ha): 0% | Galium aparine observed (Galium aparine; 30 g of ai/ha): 0% | Galium aparine observed (Galium aparine; 60 g of ai/ha): 0% | Amaranthus retroflexus observed (Amaranthus retroflexus; 15 g of ai/ha): 90% | Amaranthus retroflexus observed (Amaranthus retroflexus; 30 g of ai/ha): 90% | Amaranthus retroflexus observed (Amaranthus retroflexus; 60 g of ai/ha): 90% | Xanthium strumarium observed (Xanthium strumarium; 15 g of ai/ha): 20% | Xanthium strumarium observed (Xanthium strumarium; 30 g of ai/ha): 40% | Xanthium strumarium observed (Xanthium strumarium; 60 g of ai/ha): 60% | Digitaria sanguinalis observed (Digitaria sanguinalis; 30 g of ai/ha): 20% | Digitaria sanguinalis observed (Digitaria sanguinalis; 60 g of ai/ha): 20% | Polygonum convolvolus observed (Polygonum convolvolus; 15 g of ai/ha): 60% | Polygonum convolvolus observed (Polygonum convolvolus; 30 g of ai/ha): 70% | Polygonum convolvolus observed (Polygonum convolvolus; 60 g of ai/ha): 70% | Datura strumarium observed (Datura strumarium; 15 g of ai/ha): 70% | Datura strumarium observed (Datura strumarium; 60 g of ai/ha): 80% | Cassia tora observed (Cassia tora; [2]): 50% | Cassia tora observed (Cassia tora; [5]): 50% | Cassia tora observed (Cassia tora; [6]): 50% | Cassia tora observed (Cassia tora; application rate 15 g ai/ha): 0 | Eriochloa villosa observed (Eriochloa villosa): 70% | Veronica persicaria observed (Veronica persicaria; 60 g of ai/ha): 0% | Bromus secalinus observed (Bromus secalinus; 15 g of ai/ha): 70% | Bromus secalinus observed (Bromus secalinus; 30 g of ai/ha): 70% and 90% | Bromus secalinus observed (Bromus secalinus; 60 g of ai/ha): 80% and 90% | Matricaria inodora observed (Matricaria inodora; [6]): 20% | Matricaria inodora observed (Matricaria inodora; application rate 15 g ai/ha): 20 | Matricaria inodora observed (Matricaria inodora; application rate 30 g ai/ha): 60 | Matricaria inodora observed (Matricaria inodora; application rate 60 g ai/ha): 60 | Echinochloa crus-galli observed (Echinochloa crus-galli; [2]): 50% | Echinochloa crus-galli observed (Echinochloa crus-galli; [6]): 90% | Echinochloa crus-galli observed (Echinochloa crus-galli; application rate 15 g ai/ha): 60 | Echinochloa crus-galli observed (Echinochloa crus-galli; application rate 30 g ai/ha): 70 | Echinochloa crus-galli observed (Echinochloa crus-galli; application rate 60 g ai/ha): 90 | Avena fatua observed (Avena fatua; [2]): 80% | Avena fatua observed (Avena fatua; [5]): 90% | Avena fatua observed (Avena fatua; [6]): 90% | Avena fatua observed (Avena fatua; Table B-62, application rate 15 g ai/ha): 80 | Avena fatua observed (Avena fatua; application rate 15 g ai/ha): 70 | Avena fatua observed (Avena fatua; application rate 30 g ai/ha): 70 | Avena fatua observed (Avena fatua; application rate 60 g ai/ha): 70 | Stellaria media observed (Stellaria media; 15 g of ai/ha): 0% | Stellaria media observed (Stellaria media; 30 g of ai/ha): 60% | Stellaria media observed (Stellaria media; 60 g of ai/ha): 95%
